According to patent US9040518B2, “Chemical compounds” (GlaxoSmithKline LLC, priority 2010, dated 2015):
pIC50: −log10 of the molar value. Counter-ions that a name gives are not always drawn.

Target: ileal bile acid cotransporter (iBAT) (Homo sapiens (Human), UniProt Q12908)
Test: Human iBAT inhibition: [3H]-taurocholate uptake into HEK293 cells expressing human iBAT
Type: cell-based
Settings: HEK293 cells transduced with human iBAT Bacmam virus, 90 minutes at ambient temperature, mean of at least 2 datapoints
Procedure: Method for Determination of Human iBAT Inhibition:
In preparation for measurement of bile acid uptake into cells expressing the ileal bile acid cotransporter (iBAT), HEK293 cells were cultured in DMEM/F12 supplemented with 10% FBS. Twenty four hours prior to running an experiment, cells were harvested when at a confluence of 80-90%. Cells were seeded in poly-d-lysine coated plates at 50,000 cells per well, and human iBAT Bacmam virus was added such that each well contains 3.67×10e6 pfu (73.4pfu/cell). Each assay plate was covered with Breathe Easy Seal and placed in an incubator for 24 hours to allow expression of the transporter.
On the day of the uptake experiment, 10 mM HEPES was added to Hank's Balanced Salt Solution, and the pH was adjusted to 7.4 with TRIS (HBSSH). The assay buffer was prepared by adding […] [^3H]-taurocholate and 10 μM cold taurocholate to room temperature HBSSH. A separate washing buffer was prepared by adding 10 μM cold taurocholate to HBSSH (˜30 ml per assay plate) and placed on ice. Using 100% DMSO, 8 point, 3-fold dilution curves for each test compound was prepared starting at 200 μM. Similarly, an 8 point dose response curve was prepared of the control compound [(3R,5R)-3-butyl-3-ethyl-7,8-bis(methyloxy)-5-phenyl-2,3,4,5-tetrahydro-1,4-benzothiazepine 1,1-dioxide (Brieaddy, L. E. WO9605188, 1996)] starting at 1.8 mM. Drug plates were created by adding 3 μL of each concentration to a v-bottom 96-well plate then diluted 60-fold with 177 μL of assay buffer. Plates were removed from the incubator and allowed to cool to ambient temperature. Media was aspirated, and wells were washed once with 300 μL HBSSH. 50 μL of each dose response curve concentration was added in triplicate by column to the assay plates, reserving column 10 for control (assay buffer+1.67% DMSO) and columns 11 and 12 for the control compound. Plates were incubated at ambient temperature for 90 minutes then the plates were aspirated then washed 1× with 300 μL of wash buffer. 220 μL of Microscint 20 was added to each well, and the plates were sealed. The amount of [^3H]-taurocholate in cell lysate was quantitated using a microplate scintillation counter on the following day.
IC50's can be generated using the formula, y=(Vmax*x^n)/(K^n+x^n).

Chain of ileal bile acid cotransporter (iBAT) (Q12908 whole entry): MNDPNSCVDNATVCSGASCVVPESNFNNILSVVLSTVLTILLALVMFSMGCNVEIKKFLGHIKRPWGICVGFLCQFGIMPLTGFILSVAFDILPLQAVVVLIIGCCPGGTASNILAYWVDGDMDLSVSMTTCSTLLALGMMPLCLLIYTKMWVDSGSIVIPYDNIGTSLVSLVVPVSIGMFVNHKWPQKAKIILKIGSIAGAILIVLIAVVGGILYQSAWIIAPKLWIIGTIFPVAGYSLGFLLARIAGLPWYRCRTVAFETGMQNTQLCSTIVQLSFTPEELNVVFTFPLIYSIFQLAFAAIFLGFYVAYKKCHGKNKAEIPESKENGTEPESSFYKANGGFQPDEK

SMILES | pIC50
CCCC[C@]1(CC)CS(=O)(=O)c2cc(CNC(CC(=O)O)CC(=O)O)c(OC)cc2[C@H](c2ccccc2)N1 [Example 43, 3-({[(3R,5S)-3-butyl-3-ethyl-7-(methyloxy)-1,1-dioxido-5-phenyl-2,3,4,5-tetrahydro-1,4-benzothiazepin-8-yl]methyl}amino)pentanedioic acid] | 5.11
CCCC[C@]1(CC)CS(=O)(=O)c2cc(CN(C)CCC(=O)O)c(OC)cc2[C@@H](c2ccccc2)N1 [Example 29, N-{[(3R,5R)-3-butyl-3-ethyl-7-(methyloxy)-1,1-dioxido-5-phenyl-2,3,4,5-tetrahydro-1,4-benzothiazepin-8-yl]methyl}-N-methyl-β-alanine trifluoroacetate salt] | 6.44
CCCC[C@]1(CC)CS(=O)(=O)c2cc(CN[C@@H](CCCCN)C(=O)O)c(OC)cc2[C@@H](c2ccccc2)N1 [Example 58, N^2-{[(3R,5R)-3-butyl-3-ethyl-7-(methyloxy)-1,1-dioxido-5-phenyl-2,3,4,5-tetrahydro-1,4-benzothiazepin-8-yl]methyl}-L-lysine ammonium salt] | 5.84
CCCC[C@]1(CC)CS(=O)(=O)c2cc(CN(CC(=O)O)CC(=O)O)c(OC)cc2[C@@H](c2ccccc2)N1 [Example 7, 2,2′-({[(3R,5R)-3-butyl-3-ethyl-7-(methyloxy)-1,1-dioxido-5-phenyl-2,3,4,5-tetrahydro-1,4-benzothiazepin-8-yl]methyl}imino)diacetic acid hydrochloride salt] | 6.84
CCCC[C@]1(CC)CS(=O)(=O)c2cc(CN[C@@H](CCCCN(C)C)C(=O)O)c(OC)cc2[C@@H](c2ccccc2)N1 [Example 59, N^2-{[(3R,5R)-3-butyl-3-ethyl-7-(methyloxy)-1,1-dioxido-5-phenyl-2,3,4,5-tetrahydro-1,4-benzothiazepin-8-yl]methyl}-N^6,N^6-dimethyl-L-lysine ammonium salt] | 5.48
CCCC[C@]1(CC)CS(=O)(=O)c2cc(CNCC(=O)O)c(OC)cc2[C@H](c2ccccc2)N1 [Example 44, N-{[(3R,5S)-3-butyl-3-ethyl-7-(methyloxy)-1,1-dioxido-5-phenyl-2,3,4,5-tetrahydro-1,4-benzothiazepin-8-yl]methyl}glycine trifluoroacetate salt] | 6.19
CCCC[C@]1(CC)CS(=O)(=O)c2cc(CP(=O)(O)O)c(OC)cc2[C@H](c2ccccc2)N1 [Example 45, {[(3R,5S)-3-butyl-3-ethyl-7-(methyloxy)-1,1-dioxido-5-phenyl-2,3,4,5-tetrahydro-1,4-benzothiazepin-8-yl]methyl}phosphonic acid trifluoroacetate salt] | 5.71
CCCC[C@]1(CC)CS(=O)(=O)c2cc(CNC(=O)CNCC(=O)O)c(OC)cc2[C@@H](c2ccccc2)N1 [Example 39, N-[2-({[(3R,5R)-3-butyl-3-ethyl-7-(methyloxy)-1,1-dioxido-5-phenyl-2,3,4,5-tetrahydro-1,4-benzothiazepin-8-yl]methyl}amino)-2-oxoethyl]glycine trifluoroacetate salt] | 6.21
CCCC[C@]1(CC)CS(=O)(=O)c2cc(CCCNCCS(=O)(=O)O)c(OC)cc2[C@@H](c2ccccc2)N1 [Example 22, 2-({3-[(3R,5R)-3-butyl-3-ethyl-7-(methyloxy)-1,1-dioxido-5-phenyl-2,3,4,5-tetrahydro-1,4-benzothiazepin-8-yl]propyl}amino)ethanesulfonic acid] | 5.61
CCCC[C@]1(CC)CS(=O)(=O)c2cc(CNCCP(=O)(O)OCC)c(OC)cc2[C@@H](c2ccccc2)N1 [Example 34, ethyl hydrogen [2-({[(3R,5R)-3-butyl-3-ethyl-7-(methyloxy)-1,1-dioxido-5-phenyl-2,3,4,5-tetrahydro-1,4-benzothiazepin-8-yl]methyl}amino)ethyl]phosphonate trifluoroacetate salt] | 5.55
CCCC[C@]1(CC)CS(=O)(=O)c2cc(CNCP(=O)(O)O)c(OC)cc2[C@@H](c2ccccc2)N1 [Example 62, [({[(3R,5R)-3-butyl-3-ethyl-7-(methyloxy)-1,1-dioxido-5-phenyl-2,3,4,5-tetrahydro-1,4-benzothiazepin-8-yl]methyl}amino)methyl]phosphonic acid trifluoroacetate salt] | 5.41
CCCC[C@]1(CC)CS(=O)(=O)c2cc(CN(CP(=O)(O)O)CP(=O)(O)O)c(OC)cc2[C@@H](c2ccccc2)N1 [Example 60, [({[(3R,5R)-3-butyl-3-ethyl-7-(methyloxy)-1,1-dioxido-5-phenyl-2,3,4,5-tetrahydro-1,4-benzothiazepin-8-yl]methyl}imino)dimethanediyl]bis(phosphonic acid) tetraammonium salt] | 5.48

Second part, the molecule after the results:

pIC50 | SMILES
8.40 | CCCC[C@]1(CC)CS(=O)(=O)c2cc(CS(=O)(=O)O)c(OC)cc2[C@@H](c2ccccc2)N1 [Example 5, [3R,5R)-3-butyl-3-ethyl-7-(methyloxy)-1,1-dioxido-5-phenyl-2,3,4,5-tetrahydro-1,4-benzothiazepin-8-yl]methanesulfonic acid trifluoroacetate salt]
6.89 | CCCC[C@]1(CC)CS(=O)(=O)c2cc(CNC(=O)CCS(=O)(=O)O)c(OC)cc2[C@@H](c2ccccc2)N1 [Example 42, 3-({[(3R,5R)-3-butyl-3-ethyl-7-(methyloxy)-1,1-dioxido-5-phenyl-2,3,4,5-tetrahydro-1,4-benzothiazepin-8-yl]methyl}amino)-3-oxo-1-propanesulfonic]
7.17 | CCCC[C@]1(CC)CS(=O)(=O)c2cc(CN[C@@H](CSSC[C@H](N)C(=O)O)C(=O)O)c(OC)cc2[C@@H](c2ccccc2)N1 [Example 53, N-{[(3R,5R)-3-butyl-3-ethyl-7-(methyloxy)-1,1-dioxido-5-phenyl-2,3,4,5-tetrahydro-1,4-benzothiazepin-8-yl]methyl}-L-cystine bis-ammonium salt]
8.40 | CCCC[C@]1(CC)CS(=O)(=O)c2cc(CCCS(=O)(=O)O)c(OC)cc2[C@@H](c2ccccc2)N1 [Example 20, 3-[(3R,5R)-3-butyl-3-ethyl-7-(methyloxy)-1,1-dioxido-5-phenyl-2,3,4,5-tetrahydro-1,4-benzothiazepin-8-yl]-1-propanesulfonic acid]
8.22 | CCCC[C@]1(CC)CS(=O)(=O)c2cc(CNCC(=O)O)c(OC)cc2[C@@H](c2ccccc2)N1 [Example 25, N-{[(3R,5R)-3-butyl-3-ethyl-7-(methyloxy)-1,1-dioxido-5-phenyl-2,3,4,5-tetrahydro-1,4-benzothiazepin-8-yl]methyl}glycine]
7.39 | CCCC[C@]1(CC)CS(=O)(=O)c2cc(CN(C)CC(=O)O)c(OC)cc2[C@@H](c2ccccc2)N1 [Example 49, N-{[(3R,5R)-3-butyl-3-ethyl-7-(methyloxy)-1,1-dioxido-5-phenyl-2,3,4,5-tetrahydro-1,4-benzothiazepin-8-yl]methyl}-N-methylglycine ammonium salt]
7.64 | CCCC[C@]1(CC)CS(=O)(=O)c2cc(CP(=O)(O)O)c(OC)cc2[C@@H](c2ccccc2)N1 [Example 6, {[(3R,5R)-3-butyl-3-ethyl-7-(methyloxy)-1,1-dioxido-5-phenyl-2,3,4,5-tetrahydro-1,4-benzothiazepin-8-yl]methyl}phosphonic acid hydrochloride salt]
8.52 | CCCC[C@]1(CC)CS(=O)(=O)c2cc(/C=C/C(=O)O)c(OC)cc2[C@@H](c2ccccc2)N1 [Example 9, (2E)-3-[(3R,5R)-3-butyl-3-ethyl-7-(methyloxy)-1,1-dioxido-5-phenyl-2,3,4,5-tetrahydro-1,4-benzothiazepin-8-yl]-2-propenoic acid ammonium salt]
6.60 | CCCC[C@]1(CC)CS(=O)(=O)c2cc(CNC(=O)CP(=O)(O)O)c(OC)cc2[C@@H](c2ccccc2)N1 [Example 38, [2-({[(3R,5R)-3-butyl-3-ethyl-7-(methyloxy)-1,1-dioxido-5-phenyl-2,3,4,5-tetrahydro-1,4-benzothiazepin-8-yl]methyl}amino)-2-oxoethyl]phosphonic acid trifluoroacetate salt]
8.70 | CCCC[C@]1(CC)CS(=O)(=O)c2cc(CNCC(=O)O)c(OC)cc2[C@@H](c2ccccc2)N1O [Example 46, N-{[(3R,5R)-3-butyl-3-ethyl-4-hydroxy-7-(methyloxy)-1,1-dioxido-5-phenyl-2,3,4,5-tetrahydro-1,4-benzothiazepin-8-yl]methyl}glycine]
7.23 | CCCC[C@]1(CC)CS(=O)(=O)c2cc(CN[C@@H](CO)C(=O)O)c(OC)cc2[C@@H](c2ccccc2)N1 [Example 52, N-{[(3R,5R)-3-butyl-3-ethyl-7-(methyloxy)-1,1-dioxido-5-phenyl-2,3,4,5-tetrahydro-1,4-benzothiazepin-8-yl]methyl}-L-serine bis-ammonium salt]
